# Data: patent US20120115944A1, “USE OF CARNITINE AND DIHYDROQUERCITIN TO POSITIVELY INFLUENCE THE NATURAL PIGMENTATION PROCESS” (Henkel AG & Co., KGaA, priority 2009, published 2012)
# Assays:
# Type in all cases: cell-based
# KGF = assay: Relative excretion of KGF (ELISA) in organotypic hair follicle cell cultures; conditions: 72 hours, untreated = 100
# Source text: (§1) L-Carnitine and L-carnitine tartrate were investigated with regard to their effects on ATP synthesis the excretion of the growth factors HGF (hepatocyte growth factors) and KGF (keratinocyte growth factor). ATP (adenosine triphosphate) is the universal storage form for chemical energy in cells. Release of the phosphate groups yields ADP and Pi (inorganic phosphate). This reaction is highly exergonic, i.e. energy is released. ATP is produced in the cellular oxidative breakdown of fats, carbohydrates, and proteins. It serves as an energy supply for biochemical syntheses (including melanin synthesis), for transport operations (active transport), and for mechanical work. These processes are endergonic, i.e. they proceed only when energy is delivered. HGF and KGF are important growth factors with which the dermal papilla controls hair growth and the hair cycle, to which pigment production in the hair follicle is linked in particular fashion. Melanin formation takes place exclusively in the anagen phase of the hair cycle. […]
# (§2) The excretion of HGF and KGF can be quantified with the aid of a commercially obtainable ELISA kit. For this, organotypic hair follicle cell cultures made up of dermal papilla cells, hair follicle melanocytes, and outer root sheath keratinocytes are incubated for 72 hours with carnitine tartrate, and the concentration of HGF and KGF in the medium is determined.
# [1] = system: organotypic cell cultures made up of three-dimensionally cultivated dermal papilla cells; assay: ATP content in hair follicle cell cultures (ATPlite-M assay); conditions: 24 hours, untreated = 100
# Source text: L-Carnitine and L-carnitine tartrate were investigated with regard to their effects on ATP synthesis the excretion of the growth factors HGF (hepatocyte growth factors) and KGF (keratinocyte growth factor). ATP (adenosine triphosphate) is the universal storage form for chemical energy in cells. Release of the phosphate groups yields ADP and Pi (inorganic phosphate). This reaction is highly exergonic, i.e. energy is released. ATP is produced in the cellular oxidative breakdown of fats, carbohydrates, and proteins. It serves as an energy supply for biochemical syntheses (including melanin synthesis), for transport operations (active transport), and for mechanical work. These processes are endergonic, i.e. they proceed only when energy is delivered. HGF and KGF are important growth factors with which the dermal papilla controls hair growth and the hair cycle, to which pigment production in the hair follicle is linked in particular fashion. Melanin formation takes place exclusively in the anagen phase of the hair cycle. In addition, a variety of publications have discussed the effect of HGF on DNA synthesis, on growth, and on the differentiation of melanocytes.
# The ATP determination was performed using the ATPlite™-M assay (Packard). The test principle of this assay is based on the fact that the luciferase of Photinus pyralis catalyzes a reaction in which D-luciferin is converted into oxyluciferin in the presence of ATP. This reaction causes the emission of green light, which can be measured with a luminometer. The emitted bioluminescent light is proportional to the quantity of ATP present.
# The ATP activity determination was performed in organotypic cell cultures made up of three-dimensionally cultivated dermal papilla cells. The treatment with carnitine and carnitine tartrate occurred over 24 hours, against an untreated control.
# HGF = assay: Relative excretion of HGF (ELISA) in organotypic hair follicle cell cultures; conditions: 72 hours, untreated = 100
# Source text: as §1, §2
# gp100 = assay: Differential gene expression by quantitative RT-PCR in organotypic hair follicle cell cultures: gp100; conditions: 48 h incubation, untreated control = 1
# Source text: Gp100 is a protein that occurs in the membrane of melanosomes and stabilizes it. Because more melanin is produced in the cells after the application of substances that positively influence melanogenesis, an increase also occurs in the number of melanosomes required for transport. A substance that induces the gene expression of gp100 is therefore a pigmentation-stimulating active substance. A determination of the extent of the change in gene expression after an application of such substances onto suitable cells/cell systems/tissue cultures can provide information regarding the efficacy of the active substance. Differential gene expression was determined by means of quantitative RT-PCR. After three-dimensional organotypic hair follicle cell cultures from dermal papilla cells had been produced on microcarriers, the latter were incubated for 48 h with dihydroquercetin in two different concentrations. In order to carry out the PCR, firstly the RNA was isolated from the organotypic cell cultures using the RNeasy Mini Kit of the Qiagen company, and it was transcribed into cDNA by reverse transcription. In the context of the subsequent PCR reaction, which was carried out using gene-specific primers for the respective genes and which serves to amplify the desired gene segments, formation of the PCR products was detected online by way of a fluorescence signal, which is proportional to the quantity of PCR product formed. The stronger the expression of a specific gene, the greater the quantity of PCR product formed, and the higher the fluorescence signal. The quantify the gene expression, the untreated control was set to equal 1, and expression of the genes to be determined was referred to it (X-times expression). […] Values that are greater than or equal to 1.5 times the expression, or less than or equal to 0.7 times the expression, of the untreated control are classified as tending toward differential expression.
# ckit = assay: Differential gene expression by quantitative RT-PCR in organotypic hair follicle cell cultures: ckit; conditions: 48 h incubation, untreated control = 1
# Source text: Ligands participating in melanogenesis, such as SCF or alpha-MSH (melanocyte stimulating hormone alpha), bind to a variety of receptors by means of which the corresponding signal is delivered into the interior of the cell. The receptor for SCF is ckit, the receptor for alpha-MSH is MCR-1 (melanocortin receptor 1). Those substances that bring about a change in the expression of MCR-1 and/or ckit can influence melanogenesis. In the case of an induction (upregulation or stimulation) of the gene expression of the corresponding receptors, a stimulation of melanogenesis is to be assumed. A determination of the extent of the change in gene expression after an application of such substances onto suitable cells/cell systems/tissue cultures can provide information regarding the efficacy of the active substance. Differential gene expression was determined by means of quantitative RT-PCR. After three-dimensional organotypic hair follicle cell cultures from dermal papilla cells had been produced on microcarriers, the latter were incubated for 48 h with dihydroquercetin in two different concentrations. In order to carry out the PCR, firstly the RNA was isolated from the organotypic cell cultures using the RNeasy Mini Kit of the Qiagen company, and it was transcribed into cDNA by reverse transcription. In the context of the subsequent PCR reaction, which was carried out using gene-specific primers for the respective genes and which serves to amplify the desired gene segments, formation of the PCR products was detected online by way of a fluorescence signal, which is proportional to the quantity of PCR product formed. The stronger the expression of a specific gene, the greater the quantity of PCR product formed, and the higher the fluorescence signal. The quantify the gene expression, the untreated control was set to equal 1, and expression of the genes to be determined was referred to it (X-times expression). […]
# [2] = system: three-dimensional organotypic hair follicle cell cultures made up of dermal papilla cells, hair follicle melanocytes, and outer root sheath keratinocytes; assay: Melanin content in hair follicle equivalents
# Source text: Melanin is a dye that is produced and stored in the melanosomes of melanocytes. Melanin gives hair its actual color, the color being produced by a mixture of two types of melanin, eumelanin and pheomelanin. Melanogenesis is a complicated synthesis process regulated in many ways. Firstly, tyrosine is converted by the enzyme tyrosinase into L-dihydroxyphenylalanine (L-DOPA), and then via multiple intermediate steps into the various melanin pigments. An active substance that positively influences melanogenesis and results in an elevated melanin content in the hair follicle melanocytes is particularly suitable for influencing the natural pigmentation process of skin and/or skin appendages, preventing hair graying, and/or stimulating pigmentation.
# To investigate the melanin content, three-dimensional organotypic hair follicle cell cultures made up of dermal papilla cells, hair follicle melanocytes, and outer root sheath keratinocytes were treated for 7 days with dihydroquercetin (10 μM and 100 μM). Untreated cell cultures served as controls. After 4 and 7 days the hair follicle equivalents were homogenized and the melanin was extracted for 45 minutes using NaOH (1M)+10% DMSO at 100° C. Aliquots of the samples were then transferred into a 96-well plate, and extinction at 492 nm was measured. The increase in melanin content from day 0 to day 7 was evaluated by referring all the values to the untreated control at day 7 (=100%).
# [3] = system: MCR1 (melanocortin receptor 1); assay: Differential gene expression by quantitative RT-PCR in organotypic hair follicle cell cultures: MCR1; conditions: 48 h incubation, untreated control = 1
# Source text: Ligands participating in melanogenesis, such as SCF or alpha-MSH (melanocyte stimulating hormone alpha), bind to a variety of receptors by means of which the corresponding signal is delivered into the interior of the cell. The receptor for SCF is ckit, the receptor for alpha-MSH is MCR-1 (melanocortin receptor 1). Those substances that bring about a change in the expression of MCR-1 and/or ckit can influence melanogenesis. In the case of an induction (upregulation or stimulation) of the gene expression of the corresponding receptors, a stimulation of melanogenesis is to be assumed. A determination of the extent of the change in gene expression after an application of such substances onto suitable cells/cell systems/tissue cultures can provide information regarding the efficacy of the active substance. Differential gene expression was determined by means of quantitative RT-PCR. After three-dimensional organotypic hair follicle cell cultures from dermal papilla cells had been produced on microcarriers, the latter were incubated for 48 h with dihydroquercetin in two different concentrations. In order to carry out the PCR, firstly the RNA was isolated from the organotypic cell cultures using the RNeasy Mini Kit of the Qiagen company, and it was transcribed into cDNA by reverse transcription. In the context of the subsequent PCR reaction, which was carried out using gene-specific primers for the respective genes and which serves to amplify the desired gene segments, formation of the PCR products was detected online by way of a fluorescence signal, which is proportional to the quantity of PCR product formed. The stronger the expression of a specific gene, the greater the quantity of PCR product formed, and the higher the fluorescence signal. The quantify the gene expression, the untreated control was set to equal 1, and expression of the genes to be determined was referred to it (X-times expression). […] Values that are greater than or equal to 1.5 times the expression, or less than or equal to 0.7 times the expression, of the untreated control are classified as tending toward differential expression.
# [4] = 100 μM, listed as dihydroquercetin
smiles,measurement,setting,value
"C[N+](C)(C)CC(O)CC(=O)[O-] (stereo not shown) [Carnitine, 3-hydroxy-4-(trimethylammonium)butyric acid betaine]","KGF (%) M, relative excretion",KGF; 0.01%,120%
same,ATP (%) M,[1]; 0.05%,212%
same,ATP (%) M,"[1]; 0.05%, listed as carnitine",increase the ATP content in the treated cultures significantly
same,ATP (%) M,[1]; 0.1%,160%
same,ATP (%) M,"[1]; 0.1%, listed as carnitine",increase the ATP content in the treated cultures significantly
same,"HGF (%) M, relative excretion",HGF; 0.01%,105%
"O=C1c2c(O)cc(O)cc2OC(c2ccc(O)c(O)c2)C1O (stereo not shown) [Dihydroquercetin, 3,3′,4′,5,7-pentahydroxyflavanone]",gp100 expression M (X-times expression),gp100; 10 μM,0.89
same,gp100 expression M (X-times expression),gp100; 100 μM,3.48
same,gp100 expression M (X-times expression),gp100; [4],induced
same,ckit expression M (X-times expression),ckit; 10 μM,1.32
same,ckit expression M (X-times expression),ckit; 100 μM,3.55
same,ckit expression M (X-times expression),ckit; [4],induced
same,Melanin content (%) M,"[2]; 10 μM, d 4",100%
same,Melanin content (%) M,"[2]; 10 μM, d 7, untreated d 7 = 181",254%
same,Melanin content (%) M,"[2]; 100 μM, d 4",100%
same,Melanin content (%) M,"[2]; 100 μM, d 7, untreated d 7 = 181",161%
same,MCR1 expression M (X-times expression),[3]; 10 μM,2.56
same,MCR1 expression M (X-times expression),"[3]; 10 μM, listed as dihydroquercetin",significantly differentially expressed
same,MCR1 expression M (X-times expression),[3]; 100 μM,5.17
same,MCR1 expression M (X-times expression),[3]; [4],induced
"C[N+](C)(C)C[C@H](O)CC(=O)[O-].O=C(O)C(O)C(O)C(=O)O [Carnitine tartrate, L-carnitine tartrate]","KGF (%) M, relative excretion",KGF; 0.005%,123%
same,ATP (%) M,"[1]; 0.01%, listed as carnitine tartrate, tartrate",increase the ATP content in the treated cultures significantly
same,ATP (%) M,"[1]; 0.01%, tartrate",195%
same,ATP (%) M,[1]; 0.05%,102%
same,"HGF (%) M, relative excretion",HGF; 0.005%,141%
